From ChEMBL document CHEMBL1201862, “PubChem BioAssay data set” (2004)
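Protocol summary: plate cells (96-well), add compound at 5 concentrations, incubate 48 h, interpolate endpoints linearly. GI50 is the concentration that inhibits growth by half.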 Activity calls are given as the source filed them. Rule as the data show it: active = GI50 up to about 1.1 µM and inactive = higher. Where a SMILES comes first, the peptide text is derived from it. The star is where a group is joined. Boc = CC(C)(C)OC(=O)*; OSu = O=C1CCC(=O)N1O*

Columns and labels:
Experiment in all cases: growth of human tumour cells (NCI), 48 h
ACHN = tested on: ACHN
CAKI-1 = tested on: CAKI-1
DU-145 = tested on: DU-145
IGROV-1 = tested on: IGROV-1
LOX IMVI = tested on: LOX IMVI
MDA-N = tested on: MDA-N
Malme-3M = tested on: Malme-3M
NCI-H226 = tested on: NCI-H226
OVCAR-5 = tested on: OVCAR-5
OVCAR-8 = tested on: OVCAR-8
SF-295 = tested on: SF-295
SK-MEL-28 = tested on: SK-MEL-28
SK-MEL-2 = tested on: SK-MEL-2
SN12C = tested on: SN12C
SNB-19 = tested on: SNB-19
U-251 = tested on: U-251
NCI-H460 = tested on: NCI-H460
SF-539 = tested on: SF-539

Measured: GI50

CC(C)(C)OC(=O)CCC1NC(=O)[C@@H]2Cc3c([nH]c4ccccc34)C(C3CCCCC3)N2C1=O (some centres not stated)
inactive: ACHN 33.3 µM | CAKI-1 37.1 µM | DU-145 57.3 µM | IGROV-1 36.8 µM | LOX IMVI 26.4 µM | MDA-N 24.5 µM | Malme-3M 29.1 µM | NCI-H226 36.2 µM | OVCAR-5 53.2 µM | OVCAR-8 50.4 µM | SF-295 23.1 µM | SK-MEL-28 68.9 µM | SK-MEL-2 22.8 µM | SN12C 22.4 µM | SNB-19 41.9 µM | U-251 27 µM

CCCCCCOc1ccc(C(=O)NOC)cc1
inactive: ACHN > 100 µM | CAKI-1 96.8 µM | DU-145 > 100 µM | IGROV-1 > 100 µM | LOX IMVI > 100 µM | MDA-N > 100 µM | NCI-H226 > 100 µM | NCI-H460 > 100 µM | OVCAR-5 > 100 µM | OVCAR-8 > 100 µM | SF-295 > 100 µM | SF-539 > 100 µM | SK-MEL-28 > 100 µM | SK-MEL-2 > 100 µM | SN12C > 100 µM | SNB-19 > 100 µM | U-251 > 100 µM

O=c1ccn(C2OC(CN(O)CCC3C(CO)OC(n4ccc(=O)[nH]c4=O)C3O)C(O)C2O)c(=O)[nH]1 (configuration not stated)
inactive: ACHN > 100 µM | CAKI-1 > 100 µM | DU-145 > 100 µM | IGROV-1 > 100 µM | MDA-N > 100 µM | Malme-3M > 100 µM | NCI-H226 > 100 µM | NCI-H460 > 100 µM | OVCAR-5 > 100 µM | OVCAR-8 > 100 µM | SF-295 > 100 µM | SK-MEL-28 > 100 µM | SK-MEL-2 > 100 µM | SN12C > 100 µM | SNB-19 > 100 µM | U-251 > 100 µM

COc1ccccc1-c1cc(=O)c2ccccc2n1C1CC1
inactive: ACHN 2.2 µM | CAKI-1 3.49 µM | DU-145 3.5 µM | IGROV-1 4.43 µM | LOX IMVI 3.89 µM | MDA-N 4.06 µM | NCI-H226 2.42 µM | NCI-H460 2.74 µM | OVCAR-5 2.72 µM | OVCAR-8 3.79 µM | SF-295 2 µM | SF-539 4.6 µM | SK-MEL-2 2.69 µM | SN12C 5.08 µM | SNB-19 4.86 µM | U-251 3.54 µM

CNc1ncccc1Nc1cc(=O)n2c3cccnc3n(C)c2c1
inactive: ACHN > 100 µM | CAKI-1 94.6 µM | DU-145 > 100 µM | IGROV-1 34.1 µM | LOX IMVI > 100 µM | MDA-N > 100 µM | NCI-H226 > 100 µM | NCI-H460 > 100 µM | OVCAR-5 > 100 µM | OVCAR-8 > 100 µM | SF-295 93.5 µM | SF-539 73.5 µM | SK-MEL-28 > 100 µM | SNB-19 40.9 µM | U-251 21.8 µM

CCN(CC)CCCC(C)Nc1cc(/C=C/c2ccc(Cl)cc2)nc2cc(N(C)C)ccc12 (configuration not stated)
inactive: ACHN 2.11 µM | DU-145 1.66 µM | IGROV-1 2 µM | MDA-N 1.47 µM | NCI-H226 3.71 µM | NCI-H460 1.67 µM | OVCAR-5 1.94 µM | OVCAR-8 1.86 µM | SF-295 1.9 µM | SF-539 2.15 µM | SK-MEL-28 1.74 µM | SN12C 1.8 µM | SNB-19 1.82 µM | U-251 1.64 µM

CC(=O)C1(O)CCC2(O)C3(O)CC=C4CC(O)CCC4(C)C3CC(OC(=O)c3ccc(O)cc3)C12C (configuration not stated)
inactive: ACHN > 100 µM | CAKI-1 > 100 µM | DU-145 > 100 µM | IGROV-1 > 100 µM | LOX IMVI > 100 µM | MDA-N > 100 µM | NCI-H226 80.2 µM | NCI-H460 > 100 µM | OVCAR-5 > 100 µM | OVCAR-8 > 100 µM | SF-295 > 100 µM | SF-539 > 100 µM | SK-MEL-28 > 100 µM | SK-MEL-2 > 100 µM | SN12C > 100 µM | SNB-19 > 100 µM | U-251 > 100 µM

Cc1ccsc1/C=N/Nc1ncccn1
inactive: ACHN > 100 µM | CAKI-1 > 100 µM | DU-145 > 100 µM | IGROV-1 > 100 µM | LOX IMVI > 100 µM | MDA-N > 100 µM | Malme-3M > 100 µM | NCI-H226 > 100 µM | OVCAR-5 > 100 µM | OVCAR-8 > 100 µM | SF-295 > 100 µM | SK-MEL-28 > 100 µM | SK-MEL-2 > 100 µM | SN12C > 100 µM | SNB-19 > 100 µM | U-251 > 100 µM

CCOC(=O)/C=C1\C[C@H](NC(=O)OCc2ccccc2)C(=O)N1CC(=O)OCC
inactive: ACHN > 100 µM | CAKI-1 > 100 µM | DU-145 > 100 µM | IGROV-1 > 100 µM | MDA-N > 100 µM | Malme-3M > 100 µM | NCI-H226 > 100 µM | NCI-H460 > 100 µM | OVCAR-5 > 100 µM | OVCAR-8 > 100 µM | SF-295 > 100 µM | SF-539 > 100 µM | SK-MEL-28 > 100 µM | SK-MEL-2 > 100 µM | SN12C > 100 µM | SNB-19 > 100 µM | U-251 > 100 µM

O=CC12CCCN1CCC2
inactive: ACHN > 100 µM | CAKI-1 > 100 µM | DU-145 > 100 µM | IGROV-1 > 100 µM | LOX IMVI > 100 µM | MDA-N > 100 µM | Malme-3M > 100 µM | NCI-H226 76.4 µM | NCI-H460 > 100 µM | OVCAR-5 > 100 µM | SF-295 > 100 µM | SK-MEL-28 > 100 µM | SK-MEL-2 > 100 µM | SN12C > 100 µM | SNB-19 > 100 µM | U-251 > 100 µM

COC(=O)C(NC(=O)c1ccccc1)c1ccco1 (configuration not stated)
inactive: ACHN > 100 µM | DU-145 > 100 µM | IGROV-1 > 100 µM | MDA-N > 100 µM | Malme-3M > 100 µM | NCI-H226 > 100 µM | NCI-H460 > 100 µM | OVCAR-5 > 100 µM | OVCAR-8 > 100 µM | SF-295 > 100 µM | SF-539 > 100 µM | SK-MEL-28 > 100 µM | SN12C > 100 µM | SNB-19 > 100 µM | U-251 > 100 µM

CC(NC(=O)C(NC(=O)OC(C)(C)C)C(C)C)C(=O)NCC(=O)ON1C(=O)CCC1=O (stereo not drawn) (Boc-Val-Ala-Gly-OSu; configuration not given here)
inactive: ACHN > 100 µM | CAKI-1 > 100 µM | DU-145 > 100 µM | IGROV-1 > 100 µM | MDA-N > 100 µM | Malme-3M > 100 µM | NCI-H226 > 100 µM | NCI-H460 > 100 µM | OVCAR-5 > 100 µM | OVCAR-8 > 100 µM | SF-295 > 100 µM | SF-539 > 100 µM | SK-MEL-28 > 100 µM | SK-MEL-2 > 100 µM | SN12C > 100 µM | SNB-19 > 100 µM | U-251 > 100 µM
